Key:
Type in all cases: physicochemical
[1] = Salt concentration in polar and nonpolar solvents (Table 2)
[2] = Qualitative solubility in representative organic solvents; details: for solubility in CH2Cl2: CH2Cl2, qualitative; for solubility in dimethylformamide / solubility in ethanol / solubility in hexanes / solubility in toluene: qualitative
[3] = Concentration of salt in solution, gel and film; details: Tween 80 21.6 mg
From the text: The identification of water soluble phthalocyanine salts also makes possible the preparation of aqueous gel formulations of phthalocyanine salts. […] These phthalocyanine salt-containing gels provide gel formulations of phthalocyanine salts suitable for topical use. Thin films of the gels can also be dried to form coherent, stable, water-swellable films. These films provide formulations for phthalocyanine salt-containing patches that can be used for topical administration.

[4] = Chemical stability (air, chromatography)

Row | salt concentration, […] aqueous Tween 80 ([1]; […] aqueous Tween 80) | solubility in aqueous solution ([1]; aqueous solution, in words) | salt concentration, hexanes ([1]; hexanes) | solubility in hexanes and mineral oil ([1]; hexanes, mineral oil (Nujol), in words) | salt concentration, mineral oil ([1]; mineral oil) | solubility in CH2Cl2 [2] | solubility in dimethylformamide [2] | solubility in ethanol [2] | solubility in hexanes [2] | solubility in toluene [2] | product conc ([3]; film: Pc 4 0.33 mg, HEC 118 mg) | product conc ([3]; gel: Pc 4 0.33 mg, H2O 3.0 mL, HEC 118 mg) | product conc ([3]; solution: Pc 4 0.33 mg, H2O 3.0 mL) | time of hydrolysis by air to Pc 4 ([4]; air) | Molecule | stability on chromatography ([4]; Biobeads S-X3, CH2Cl2) | stability in air ([4]; air)
1 | 0.165 mM | show solubility | 0.0006 mM | little | 0.0002 mM | soluble | soluble | soluble | insoluble | moderately soluble | ~0.2% | ~0.01% | 0.11 mg/mL |  | [HOSiPcOSi(CH3)2(CH2)3NH(CH2)21]^+[OC(O)CHOHCH2C(O)OH]^− [Compound 6] |  | 
2 |  |  |  |  |  | soluble | soluble | soluble | insoluble | moderately soluble |  |  |  |  | [HOSiPcOSi(CH3)2(CH2)3NH(CH3)2]^+[(HOC(O)(CH2)10Si(CH3)2)(Si(CH3)2O)˜120(Si(CH3)2(CH2)10C(O)O]^− [Compound 16] | decomposed to Pc 4 and the carboxysiloxane | 
3 |  |  |  |  |  | soluble | soluble | soluble | insoluble | moderately soluble |  |  |  | ≤ 30 min | [ClSiPcOSi(CH3)2(CH2)3NH(CH3)2]^+Cl^− [Compound 28] |  | 

Row | Molecule | salt concentration, […] aqueous Tween 80 ([1]; […] aqueous Tween 80) | solubility in aqueous solution ([1]; aqueous solution, in words) | salt concentration, hexanes ([1]; hexanes) | solubility in hexanes and mineral oil ([1]; hexanes, mineral oil (Nujol), in words) | salt concentration, mineral oil ([1]; mineral oil) | solubility in CH2Cl2 [2] | solubility in dimethylformamide [2] | solubility in ethanol [2] | solubility in hexanes [2] | solubility in toluene [2] | product conc ([3]; film: Pc 4 0.33 mg, HEC 118 mg) | product conc ([3]; gel: Pc 4 0.33 mg, H2O 3.0 mL, HEC 118 mg) | product conc ([3]; solution: Pc 4 0.33 mg, H2O 3.0 mL) | time of hydrolysis by air to Pc 4 ([4]; air) | stability on chromatography ([4]; Biobeads S-X3, CH2Cl2) | stability in air ([4]; air)
4 | CCC(=O)O[Si-2]123(O[Si](C)(C)CCCN(C)C)n4c5c6ccccc6c4N=C4c6ccccc6C(=[N+]41)N=c1c4ccccc4c(n12)=NC1=[N+]3C(=N5)c2ccccc21 [Compound 3, CH3CH2C(O)OSiPcOSi(CH3)2(CH2)3N(CH3)2] |  |  |  |  |  | soluble | soluble | soluble | insoluble | moderately soluble |  |  |  |  |  | stable
